In article PMC3210919 (Biochemistry, 2011):
Where “and” joins values, the source holds several entries; their conditions need not be identical. Identical values can stand only once. Like-named read-outs stand apart in the source and are kept apart here. Each block holds one compound with its values, some of them ahead of it.

Tests used:
[1] = test system: wild-type RePC (pyruvate carboxylase from R. etli); assay: Pyruvate carboxylation activity, malate dehydrogenase coupled assay; assay type: biochemical, Rhizobium etli
wild-type RePC [2] = target: T1, wild-type RePC (Rhizobium etli, UniProt Q2K340); assay: Coupling study: initial rates of Pi release at varying pyruvate; assay type: biochemical; conditions: for Ka pyruvate, stimulation of Pi release: 15 mM HCO3^−
wild-type RePC [3] = target: T1, wild-type RePC; assay: Coupling study: initial rates of oxaloacetate formation at varying pyruvate; conditions: pyruvate varied; for kcat, oxaloacetate formation: 15 mM HCO3^−
wild-type RePC [4] = target: T1, wild-type RePC; assay: HCO3^−-dependent ATPase activity in the absence of pyruvate; assay type: biochemical
K1119Q RePC mutant [5] = target: T2, K1119Q RePC mutant (Rhizobium etli, UniProt Q2K340, K1119Q); assay: HCO3^−-dependent ATPase reaction, K1119Q mutant; assay type: biochemical
T882A RePC mutant [6] = target: T3, T882A RePC mutant (Rhizobium etli, UniProt Q2K340, T882A)
wild-type RePC [7] = target: T1, wild-type RePC; assay type: biochemical
wild-type RePC [8] = target: T1, wild-type RePC; assay type: biochemical; remark: listed apart in the source
wild-type RePC [9] = target: T1, wild-type RePC; assay type: biochemical; remark: listed apart in the source
K1119Q RePC mutant [10] = target: T2, K1119Q RePC mutant
T882A RePC mutant [11] = target: T3, T882A RePC mutant; remark: listed apart in the source
[12] = labelled substrate varied, others saturating, pH 7.5, 25° C, 0.25 mM acetyl-CoA
[13] = acetyl-CoA varied, 0.5 mM free Mg^2+, Hill fit eqn (4)
[14] = acetyl-CoA varied, 1.0 mM free Mg^2+, Hill fit eqn (4)
[15] = acetyl-CoA varied, 3.0 mM free Mg^2+, Hill fit eqn (4)
[16] = saturating acetyl-CoA and substrates

Km [1, 12]: 150 ± 10 µM | kcat [1, 12]: 440 ± 8 ^d min^−1 | Vmax ([1]; pyruvate varied, 0.7 mM free Mg^2+): 0.69 ± 0.02 µmol/mg/min | Vmax ([1]; pyruvate varied, 3.0 mM free Mg^2+): 3.18 ± 0.08 µmol/mg/min | Vmax ([1]; pyruvate varied, 5.0 mM free Mg^2+): 3.98 ± 0.04 µmol/mg/min | Vmax ([1]; pyruvate varied, […] free Mg^2+): 1.41 ± 0.01 µmol/mg/min | Km ([1]; read-out: Km pyruvate, pyruvate varied, 0.7 mM free Mg^2+): 3100 ± 200 µM | Km ([1]; read-out: Km pyruvate, pyruvate varied, 3.0 mM free Mg^2+): 2650 ± 40 µM | Km ([1]; read-out: Km pyruvate, pyruvate varied, 5.0 mM free Mg^2+): 150 ± 10 µM | Km ([1]; read-out: Km pyruvate, pyruvate varied, […] free Mg^2+): 3000 ± 400 µM | Ka pyruvate, stimulation of Pi release (wild-type RePC [2]; (+) 0.25 mM acetyl-CoA): 0.16 ± 0.01 mM | Ka pyruvate, stimulation of Pi release (wild-type RePC [2]; (−) acetyl-CoA): 0.048 ± 0.008 mM | fold increase of the rates of Pi release from the BC domain (wild-type RePC [2]; low concentrations of pyruvate, absence of acetyl-CoA): 120-175 fold | fold stimulation of the rate of Pi release from the BC domain (wild-type RePC [2]; lowest concentrations of pyruvate, presence of acetyl-CoA): 300-500 fold | Ka pyruvate (Pi release) without acetyl-CoA, % of (+) acetyl-CoA (wild-type RePC [2]; pyruvate varied): 30% | kcat Pi release without acetyl-CoA, % of (+) acetyl-CoA (wild-type RePC [2]; pyruvate varied): 5.8% | kcat/Ka (Pi release) without acetyl-CoA, % of (+) acetyl-CoA (wild-type RePC [2]; pyruvate varied): 19% | limiting value of the ratio oxaloacetate formation / Pi release (wild-type RePC [2]; saturating pyruvate and acetyl-CoA): 1.08 | fold increase in the rate of Pi release (wild-type RePC [2]; sub-saturating concentrations of pyruvate): ~300 fold | Km pyruvate (oxaloacetate formation) without acetyl-CoA, % of (+) acetyl-CoA (wild-type RePC [3]): 2% | kcat oxaloacetate formation without acetyl-CoA, % of (+) acetyl-CoA (wild-type RePC [3]): 0.5% | kcat/Km (oxaloacetate formation) without acetyl-CoA, % of (+) acetyl-CoA (wild-type RePC [3]): 24% | kcat, oxaloacetate formation (wild-type RePC [3]; (+) 0.25 mM acetyl-CoA): 5.17 ± 0.13 s⁻¹ | kcat, oxaloacetate formation (wild-type RePC [3]; (−) acetyl-CoA): 0.0253 ± 0.0005 s⁻¹
Compound: CC(=O)C(=O)O [pyruvate]

Compound: Nc1ncnc2c1ncn2[C@@H]1O[C@H](COP(=O)(O)OP(=O)(O)OP(=O)(O)O)[C@@H](O)[C@H]1O [MgATP]
Km [1, 12]: 145 ± 9 µM | kcat [1, 12]: 396 ± 10 ^d min^−1 | % kcat of pyruvate carboxylation (wild-type RePC [4]; MgATP varied, pH 7.5, 25° C, 0.25 mM acetyl-CoA): 0.6% | kcat (wild-type RePC [4]; wild-type, no free biotin, pH 7.5, 25° C, 15 mM HCO3^−, 7.5 mM MgCl2, 0.25 mM acetyl-CoA): 0.043 ± 0.0015 s⁻¹ | % wild-type kcat/Km (K1119Q RePC mutant [5]; (+) 10 mM free biotin): 40% | % wild-type kcat/Km (K1119Q RePC mutant [5]; no free biotin): 0.06% | kcat (K1119Q RePC mutant [5]; no free biotin): 0.00137 ± 1.7e-05 s⁻¹ | % wild-type kcat/Km (T882A RePC mutant [6]; (+) 10 mM free biotin): 260% | % wild-type kcat/Km (T882A RePC mutant [6]; no free biotin): 225% | kcat (T882A RePC mutant [6]; no free biotin): 0.233 ± 0.033 s⁻¹

Compound: O=C(O)CCCC[C@@H]1SC[C@@H]2NC(=O)N[C@@H]21 [biotin]
fold increase in the catalytic efficiency (K1119Q RePC mutant [5]; 10 mM free biotin added): ~1000 fold | fold decrease in the Km for MgATP (K1119Q RePC mutant [5]; addition of 10 mM biotin): 35 fold

n acetyl-CoA (Hill coefficient) ([1]; acetyl-CoA varied, 0.5 mM free Mg^2+): 2.0 ± 0.3 | Ka acetyl-CoA [1, 13]: 38 ± 2 µM | Vmax [1, 13]: 1.16 ± 0.07 µmol/mg/min | n acetyl-CoA (Hill coefficient) ([1]; acetyl-CoA varied, 1.0 mM free Mg^2+): 2.8 ± 0.5 | Ka acetyl-CoA [1, 14]: 26 ± 2 µM | Vmax [1, 14]: 1.39 ± 0.06 µmol/mg/min | n acetyl-CoA (Hill coefficient) ([1]; acetyl-CoA varied, 3.0 mM free Mg^2+): 2.6 ± 0.2 | Ka acetyl-CoA [1, 15]: 10 µM and 10.0 ± 0.4 µM | Vmax [1, 15]: 5.7 ± 0.1 µmol/mg/min | Vmax ([1]; acetyl-CoA varied, […] free Mg^2+, Hill fit eqn (4)): 2.59 ± 0.08 µmol/mg/min | overall fold decrease in the Ka for acetyl-CoA ([1]; addition of 3.0 mM free Mg^2+): 3.8 fold | kcat (specific activity), (+) acetyl-CoA [1, 16]: 11.7 ± 0.333 s⁻¹ | % rate (−) acetyl-CoA compared to the specific activity in the presence of acetyl-CoA ([1]; saturating substrates): 9% | decrease in rate caused by lack of acetyl-CoA (wild-type RePC [7]; full reverse reaction): 78% | kcat (specific activity), (+) acetyl-CoA (wild-type RePC [7]; [16]): 0.0139 ± 8.3e-05 s⁻¹ | % rate (−) acetyl-CoA compared to the specific activity in the presence of acetyl-CoA (wild-type RePC [7]; saturating substrates): 18% | decrease in rate caused by lack of acetyl-CoA (wild-type RePC [4]; MgATP hydrolysis): 82% | kcat (specific activity), (+) acetyl-CoA (wild-type RePC [4]; [16]): 0.043 ± 0.0015 s⁻¹ | % rate (−) acetyl-CoA compared to the specific activity in the presence of acetyl-CoA (wild-type RePC [4]; saturating substrates): 22% | kcat (specific activity), (+) acetyl-CoA (wild-type RePC [8]; [16]): 0.15 ± 0.00067 s⁻¹ | % rate (−) acetyl-CoA compared to the specific activity in the presence of acetyl-CoA (wild-type RePC [8]; saturating substrates): 67% | effect of acetyl-CoA on the rate of MgADP phosphorylation by carbamoyl phosphate (wild-type RePC [9]): no effect | kcat (specific activity), (+) acetyl-CoA (wild-type RePC [9]; [16]): 0.04 ± 0.0017 s⁻¹ | % rate (−) acetyl-CoA compared to the specific activity in the presence of acetyl-CoA (wild-type RePC [9]; saturating substrates): 100%
Compound: CC(=O)SCCNC(=O)CCNC(=O)[C@H](O)C(C)(C)COP(=O)(O)OP(=O)(O)OC[C@H]1O[C@@H](n2cnc3c(N)ncnc32)[C@H](O)[C@@H]1OP(=O)(O)O [acetyl-CoA, acetyl-coenzyme A, reference compound]

Compound: NC(=O)OP(=O)(O)O [Carbamoyl phosphate]
% kcat of pyruvate carboxylation (wild-type RePC [9]; phosphoryl donor varied, pH 7.5, 25° C, 0.25 mM acetyl-CoA): 0.6% | kcat (wild-type RePC [9]; wild-type, no free biotin, pH 7.5, 25° C, […] MgADP, 0.25 mM acetyl-CoA (Table 7)): 0.04 ± 0.0017 s⁻¹ | % wild-type kcat/Km (K1119Q RePC mutant [10]; (+) 10 mM free biotin): 45% | % wild-type kcat/Km (K1119Q RePC mutant [10]; no free biotin): 17% | % wild-type kcat/Km (T882A RePC mutant [11]; (+) 10 mM free biotin): 920% | % wild-type kcat/Km (T882A RePC mutant [11]; no free biotin): 750%

fold stimulation of the rate of oxaloacetate decarboxylation compared to the full reverse reaction (wild-type RePC [8]; saturating oxamate): 11 fold
Compound: NC(=O)C(=O)O [oxamate]
